Where two headings read alike, the source gives them in different places.
System: HT-29 (human) cancer cell line
Assay: Cell proliferation inhibitory effect (MTT assay) on cultured cancer cell line HT-29
Type: cell-based
Conditions: HT-29 cells; for IC50: incubation at 37° C. for three days, MTT assay, read-out: CPI50 (concentration required for attaining 50% CPI, percent cell proliferation inhibition)
Method: A cultured cancer cell line (HT-29 (human)) was inoculated into a 96-well plate (1×10^4 cells/100 μL/well), and subsequently the GlcNAc-cholestanol-compound-containing liposomal formulation or cyclodextrin inclusion complexation prepared in Example 1 was added to the 96-well plate, followed by incubation at 37° C. for three days. Thereafter, the MTT assay was performed, and the number of cells was determined. Percent cell proliferation inhibition was obtained by use of the below-described formula.
Percent cell proliferation inhibition (percent CPI) (%)=(1 −OD of treated cells/OD of non-treated cells)×100 [E1]
OD of treated cells and OD of non-treated cells were measured at 450 nm and 650 nm, respectively (according to the MTT assay).

[1] = Cyclodextrin inclusion complexation

SMILES | IC50 [1] | IC50 (Liposomal formulation) | cell proliferation inhibitory effect (in words) (liposomal formulation or cyclodextrin inclusion complexation, three days)
CC(C)CCC[C@@H](C)[C@H]1CC[C@H]2[C@@H]3CCC4CC(OC5O[C@H](CO)[C@H](O)[C@H](O)[C@H]5O)CC[C@]4(C)[C@H]3CC[C@]12C (stereo partly drawn) [GalChol, Galp-cholestanol] | 37.4 µM | 12.7 µM | 
CC(C)CCC[C@@H](C)[C@H]1CC[C@H]2[C@@H]3CC[C@H]4C[C@@H](O)CC[C@]4(C)[C@H]3CC[C@]12C [Chol, cholestanol] | > 1000 µM | 354 µM | 
CC(=O)N[C@H]1[C@H](O[C@H]2[C@@H](O)[C@@H](CO)O[C@@H](O[C@H]3CC[C@@]4(C)[C@@H](CC[C@@H]5[C@@H]4CC[C@]4(C)[C@@H]([C@H](C)CCCC(C)C)CC[C@@H]54)C3)[C@@H]2O)O[C@H](CO)[C@@H](O)[C@@H]1O [GlcNAcGalChol, GlcNAcβ1,3Galβ-cholestanol] | 15.9 µM | 10.2 µM | 
CC(=O)N[C@H]1[C@H](O[C@H]2CC[C@@]3(C)[C@@H](CC[C@@H]4[C@@H]3CC[C@]3(C)[C@@H]([C@H](C)CCCC(C)C)CC[C@@H]43)C2)O[C@H](CO)[C@@H](O)[C@@H]1O [GlcNacChol, 5-α-cholestan-3β-yl-2-acetamido-2-deoxy-β-D-glucopyranoside] | 8.8 µM | 10.4 µM | strong cell proliferation inhibitory effect

— patent US7968116B2, “Antitumor agent” (Otsuka Pharmaceutical Co., Ltd., priority 2005, dated 2011)
